In patent US12661334B2, “Dietary butyrate and its uses” (SOCIETE DES PRODUITS NESTLE S.A., priority 2019, dated 2026):

Key:
[1] = molecular target: T1, porcine pancreatic lipase (PPL) (Sus scrofa, UniProt P00591); conditions: pig, 3 h, pH 11.5
T1 sequence (P00591 1-450): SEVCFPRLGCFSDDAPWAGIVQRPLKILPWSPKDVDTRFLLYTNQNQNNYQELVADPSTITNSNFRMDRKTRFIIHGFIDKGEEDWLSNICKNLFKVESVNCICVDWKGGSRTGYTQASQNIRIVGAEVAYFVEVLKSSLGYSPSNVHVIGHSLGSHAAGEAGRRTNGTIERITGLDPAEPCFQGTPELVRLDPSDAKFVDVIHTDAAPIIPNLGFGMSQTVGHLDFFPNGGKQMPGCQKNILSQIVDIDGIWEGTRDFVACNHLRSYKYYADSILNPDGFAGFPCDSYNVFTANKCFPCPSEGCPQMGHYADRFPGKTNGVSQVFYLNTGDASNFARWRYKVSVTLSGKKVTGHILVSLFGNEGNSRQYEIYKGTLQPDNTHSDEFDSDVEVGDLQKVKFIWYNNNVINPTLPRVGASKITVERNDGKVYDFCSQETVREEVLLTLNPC
T1 sequence (P02703 23-112 partner): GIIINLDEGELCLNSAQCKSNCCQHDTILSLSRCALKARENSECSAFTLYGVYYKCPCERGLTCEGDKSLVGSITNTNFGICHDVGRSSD
From the text: Because many fatty acids are only partially ionised at pH 6.8, direct titration gives only partial picture of the extent of lipid digestion, instead back titration to pH 11.5 or GC-FAME analysis is required to estimate the full extent of digestion.

[2] = tested on: rabbit gastric lipase (RGL) followed by porcine pancreatic lipase (PPL)
Protocol: 10 wt % oil in water emulsions stabilised by 0.3 wt % polyoxyethylene sorbitan mono-oleate (Tween® 80) were prepared by mixing the Tween 80 into the oil phase at 40° C., then mixing with the water phase using a magnetic stirrer. An emulsion was then created using a Hielscher UP 400S ultrasonic probe homogeniser equipped with a 5 mm diameter rod-like probe by applying 100% amplitude at 100% cycle for 2 minutes whilst the sample was cooled using ice water.
The lipid emulsion (2 mL) containing 200 mg of fat was subjected to gastrointestinal in vitro lipolysis. […] For gastric digestion, the sample was incubated for 90 minutes with 8.5 mL of simulated gastric fluid (SGF), which consisted of 150 mM NaCl, 450 U/mL pepsin, 18 U/mL rabbit gastric lipase at 37° C. and a pH of 5.5.
The intestinal digestion step was performed in the pH stat where the pH was kept constant at 6.8 by addition of NaOH (0.05 M). […] The intestinal digestion step starts when the temperature reaches 37±0.5° C. The pH was adjusted to pH 6.8 and after incubation of two minutes at this pH and temperature, a pancreatin solution (5 mM tris, 150 mM NaCl at pH 6.8) was added. The final composition of the intestinal fluid was 10 mM CaCl2, 12 mM mixed bile salts, 0.75 mM phospholipid, 150 mM NaCl and 4 mM tris(hydroxymethyl)aminomethane buffer. The intestinal digestion step was carried out for 3 hours in a titration manager from Radiometer. During the intestinal phase of digestion, the kinetics of digestion were followed using a pH-stat (TIM856, Radiometer) technique and expressed as titratable acid (rather than fatty acid) that was calculated by the equation: TA=VNaOH×0:05×1000
TA: Total titratable acid released, mmol; VNaOH: volume of NaOH used to titrate the released acid in 3 h, mL.

## CCCC(=O)OCC(COC(=O)CCC)OC(=O)CCC [tributyrin]
[1]
  Extent of digestion: 101.5±0.9%
[2]; rabbit (gastric lipase), pig (pancreatic lipase), 3 h, pH 6.8
  Total amount of acid released: 381 ± 20 µmol
[2]; rabbit (gastric lipase), pig (pancreatic lipase), pH 6.8
  Initial lipolysis rate in SIF: 44.1 ± 8.8 µmol/min
[2]; rabbit, 90 min, 19 mg/mL, pH 5.5
  Lipolysis by gastric lipase: ~60%
